≈ marks a conversion by molar mass, not a printed value. Entries after “also recorded” stand apart in the source; their conditions may differ. Like-named read-outs stand apart in the source and are kept apart here.
Tests used:
[1] = test system: Colletotrichum dematium; test: microbe, parasite or virus in culture; type: cell-based; conditions: 144 h
[2] = test system: strain 0617-T307; test: Bioactive fractions tested against the producer strain; type: cell-based, Pseudomonas soli; conditions: crude extracts 100 μg/mL; flash-RejuAgro A 20 μg/mL; HPLC-RejuAgro A 10 μg/mL
Description: (§1) Two assays were used for the antimicrobial test of 0617-T307 cell broth and metabolites. One is plate diffusion assay and the other one is microplate assay. LB plate was used for the plate diffusion assay of the antimicrobial activity of RejuAgro A containing fractions and cell broths against E. amylovora (Table 3).
(§2) The bioactive fractions (crude extracts, 100 μg/mL; flash-RejuAgro A, 20 μg/mL; HPLC-RejuAgro A, 10 μg/mL) were tested against strains 0617-T307, Ea and Xac.

[3] = test system: Septoria tritici; test: microbe, parasite or virus in culture; type: cell-based; conditions: Zymoseptoria tritici, 144 h
[4] = test system: the other soft pathogenetic bacteria (Pectobacterium, Dickeya dadantii); test: MIC antimicrobial assay; type: cell-based
[5] = Solubility in solvents; type: physicochemical; conditions: methanol, chloroform
Description: Preparative HPLC (Prep-HPLC) purification of the fraction 3840 and 5054 lead to the discovery of 15 mg yellow colored compound RejuAgro A (Rt17.5) and 103.3 mg dark-green colored compound RejuAgro B, respectively. […] The structures of the two compounds have been investigated by High resolution mass spectrometry (HR-MS), infrared (IR), Ultraviolet (UV), 1D and 2D Nuclear magnetic resonance (NMR) as well as X-ray crystal structure analysis.

[6] = test system: Pseudomonas savastanoi pv. savastanoi; test: MIC antimicrobial assay (CLSI, 96 well plates); type: cell-based
[7] = test system: Phytophthora infestans Pi 1306; test: microbe, parasite or virus in culture; type: cell-based
[8] = test system: Phytophthora infestans Pi 88069; test: microbe, parasite or virus in culture; type: cell-based
[9] = test system: Xanthomonas citri pv. citri citrange (XW19); test: Paper disc inhibition zone on PSG agar plates; conditions: 44 h, read-out: Inhibition zone
[10] = test system: Flavobacterium columnare #2; test: MIC antimicrobial assay (CLSI, 96 well plates); type: cell-based; conditions: Flavobacterium columnare #2 (Fish columnaris disease), TYES
[11] = test system: Fusarium oxysporum f. sp. Melonsis; test: microbe, parasite or virus in culture; type: cell-based; conditions: 144 h
[12] = Stability of RejuAgro A in the culture (LCMS); type: physicochemical; conditions: room temperature; 40-h culture of 0617-T307 in YME; tested by LCMS
Description: RejuAgro A can be present and stable in the culture at room temperature for at least 4 weeks, as tested by LCMS for 40-h culture obtained by growing 0617-T307 in YME media on a shaker at 16° C. and 220 rpm.

[13] = test system: Ea; test: Bioactive fractions tested against Ea; type: cell-based, Erwinia amylovora; conditions: crude extracts 100 μg/mL; flash-RejuAgro A 20 μg/mL; HPLC-RejuAgro A 10 μg/mL
Description: as §1, §2

[14] = test system: Mycosphaerella fijiensis 10CR-25; test: Antimicrobial effect in PDA agar medium (6-well plate); type: cell-based
Description: The antimicrobial effect of RejuAgro A on Mycosphaerella fijiensis was examined by adding final concentrations of 60 and 600 μg/mL of HPLC purified RejuAgro A respectively into the PDA agar medium. A 480 μL of 0.5 mg/mL or 5 mg/mL RejuAgro A was added into 3.52 mL of PDA in a well of a 6-well plate to make the final concentration of RejuAgro A at 60 (FIG. 12, middle well (panel A)) and 600 μg/mL (FIG. 12, left well (panel B)) respectively. The plate was gently shaken to let the compound dissolved.

[15] = test system: Venturia inaequalis; test: Antifungal assay on amended PDA plates; type: cell-based
Description: The fungus Venturia inaqualis that causes apple scab was maintained on PDA agar in the dark at room temperature (˜24° C.). A mixture of conidia and mycelia suspension (in 0.01 M PBS) was harvested from PDA (Potato dextrose agar). Ten μL the conidia and mycelia suspension were dropped onto biocontrol bacteria, RejuAgro A, or RejuAgro A amended plates. The control was PDA plates without the addition of the biocontrol bacteria or RejuAgro A or B. […]

[16] = test system: Liberibacter crescens BT-1; test: microbe, parasite or virus in culture; type: cell-based
[17] = test system: P. infestans; test: microbe, parasite or virus in culture; type: cell-based; conditions: Phytophthora infestans
[18] = test system: Xanthomonas oryzae pv. oryzicola (Xon507); test: microbe, parasite or virus in culture; type: cell-based; conditions: 44 h, read-out: Inhibition zone
[19] = test system: Magnaporthe oryzae; test: microbe, parasite or virus in culture; type: cell-based; conditions: Pyricularia oryzae, 144 h
[20] = test system: E. amylovora Ea110; test: Field assay on apple trees in the orchard; type: in vivo, Erwinia amylovora; conditions: apple orchard 2019; bacteria at 5×10^8 CFU/mL; Ea110 5×10^6 CFU/mL; water control 32.9%
Description: For the field assay, biological control bacteria (0617-T307, 0118-T319, 0318-T327, 0418-T328; see Table 2) that produce RejuAgro A were applied on the flowers of the apple trees in the orchard on May 5th and May 6th of 2019 (40% and 70% bloom of apple flowers) at the concentration of 5×10^8 CFU/mL. The bacterial pathogen E. amylovora Ea110 was inoculated on May 7th (90% bloom), at the concentration of 5×10^6 CFU/mL. […] Compared with streptomycin, the biocontrol bacteria that produce RejuAgro A have similar or better efficacy on controlling fire blight in the apple orchards.

[21] = test system: Ralstonia solanacearum K60; test: microbe, parasite or virus in culture; type: cell-based; conditions: K60, Ralstonia solanacearum K60 (bacterial wilt)
[22] = test system: Ralstonia solanacearum Pss4; test: microbe, parasite or virus in culture; type: cell-based; conditions: PSS4, Ralstonia solanacearum Pss4 (bacterial wilt)

CSC1=C(C)C(=O)C(=O)NC1=O [RejuAgro A]
MIC [1]: 50 µg/mL (≈ 270 µM) | inhibition of growth of strain 0617-T307 [2]: not able to inhibit the growth | MIC [3]: 100 µg/mL (≈ 540 µM) | MIC [4]: 20 to 40 µg/mL (≈ 108 to 216 µM) | solubility in methanol and chloroform [5]: can be dissolved | MIC ([6]; Pseudomonas savastanoi): 40 µg/mL (≈ 216 µM) | MIC [7]: 40 µg/mL (≈ 216 µM) | MIC [8]: 40 µg/mL (≈ 216 µM) | zone of inhibition at 5.5 µg/mL [9]: 0 mm | zone of inhibition at 11.1 µg/mL [9]: 0 mm | zone of inhibition at 22.1 µg/mL [9]: 0 mm | zone of inhibition at 33.2 µg/mL [9]: 0 mm | zone of inhibition at 55.4 µg/mL [9]: 2.3 ± 0.6 mm | zone of inhibition at 110.7 µg/mL [9]: 2.7 ± 1.2 mm | MIC [10]: 5 µg/mL (≈ 27 µM) | MIC [11]: 100 µg/mL (≈ 540 µM) | present and stable in the culture [12]: at least 4 weeks | inhibition of growth of Ea [13]: almost abolish the growth | growth of M. fijiensis on PDA agar ([14]; 60 μg/mL): growth | growth of M. fijiensis on PDA agar ([14]; 600 μg/mL, two weeks post-inoculation): complete inhibition; also recorded: inhibitory growth | MIC ([14]; Pseudocercospora fijiensis, 10CR25, Mycosphaerella fijiensis 10CR-25 (black sigatoka of Banana)): 600 µg/mL (≈ 3240 µM) | growth of V. inaequalis on PDA plates ([15]; 40-80 μg/mL in PDA plate, day 14 (figure)): can inhibit the growth; also recorded: cannot grow | inhibition at 80 µg/mL ([15]; Venturia inaequalis): 100% | MIC ([15]; Venturia inaequalis (Apple scab)): 80 µg/mL (≈ 432 µM) | growth of L. crescens ([16]; 1 mg/L): partial inhibition of growth | growth of L. crescens ([16]; 2.5 mg/L, for 16 days): inhibition of growth | growth of L. crescens BT1 ([16]; BM7 medium at 28° C., 10 mg/L, 20 mg/L, and 40 mg/L): inhibition of growth | MIC ([16]; Liberibacter crescens, BT1, read-out: minimal inhibitory concentration (MIC)): 2.5 µg/mL (≈ 13.5 µM) | inhibition at 40 µg/mL [17]: 100% | zone of inhibition at 5.5 µg/mL [18]: 2.7 ± 0.6 mm | zone of inhibition at 11.1 µg/mL [18]: 5 ± 1 mm | zone of inhibition at 22.1 µg/mL [18]: 7.3 ± 1.5 mm | zone of inhibition at 33.2 µg/mL [18]: 8.3 ± 1.5 mm | zone of inhibition at 55.4 µg/mL [18]: 9.3 ± 0.6 mm | zone of inhibition at 110.7 µg/mL [18]: 13.3 ± 1.2 mm | MIC [19]: 75 µg/mL (≈ 405 µM)

[H]/N=C(/N)N[C@H]1[C@H](O)[C@@H](O)[C@H](O[C@@H]2O[C@@H](C)[C@](O)(C=O)[C@H]2O[C@@H]2O[C@@H](CO)[C@H](O)[C@@H](O)[C@@H]2NC)[C@@H](N/C(N)=N\[H])[C@@H]1O [Streptomycin, reference compound]
MIC ([6]; Pseudomonas savastanoi pv. savastanoi (Olive knot), read-out: MIC): 0.31 µg/mL (≈ 0.533 µM) | percentage of diseased flower clusters [20]: 13.3% | MIC [21]: 12.5 µg/mL (≈ 21.5 µM) | MIC [10]: 0.31 µg/mL (≈ 0.533 µM) | MIC [22]: 12.5 µg/mL (≈ 21.5 µM)
